Patent publication US11072588B2, “Barbituric acid derivatives comprising cationic and lipophilic groups” (UNIVERSITETET I TROMSØ—NORGES ARKTISKE UNIVERSITET, priority 2017, dated 2021)
In brackets after ≈: the same amount, converted by molar mass.

Tests used:
Assay type in all cases: cell-based
[1] = tested on: human metastatic melanoma (A2058, ATCC CRL-11147) cells; experiment: Anti-cancer activity against A2058 cells; details: A2058, read-out: Anti-cancer IC50
Experimental: Cytotoxicity of the test compounds was evaluated after 72 hour exposure to human metastatic melanoma (A2058, ATCC CRL-11147) cells.
A2058 cells were grown overnight (2,000 cells/well), and then incubated with the test compounds (range of concentrations) diluted in MEM Earle's supplemented with gentamycin (10 μg/mL), non-essential amino acids (1%), sodium pyruvate (1 mM), L-alanyl-Lglutamine (2 mM), but without FBS (total volume was 100 μl) for […]. Ten μL of CellTiter 96® AQueous One Solution Reagent (Promega, Madison, Wis., USA) was added, and the plates were then further incubated for 1 hour.
Absorbance was measured at 485 nm in a DTX 880 Multimode Detector. Results were calculated as % survival compared to negative (assay media) and positive (Triton X-100; Sigma-Aldrich) controls.

[2] = tested on: Corynebacterium glutamicum ATCC 13032; experiment: MIC assay, antibiotic susceptible reference strain; details: ATCC13032; Corynebacterium glutamicum ATCC 13032; read-out: Antimicrobial activity (MIC) C. g
Experimental: (§1) Working solutions of the test derivatives were prepared with up to 100% DMSO and stored at −20° C. If necessary, the solutions were heated to 40-80° C. before testing to facilitate complete dissolution. Double-distilled water was used in all dilutions prepared. […] A microdilution susceptibility test was used for MIC determination according to Clinical and Laboratory Standards Institute, “Methods for Dilution Antimicrobial Sisceptibility Tests for Bacteria That Graw Aerobically”, Approved Standard M07-A9, edition 2012, with modifications as described by Igumnova et al (Bioorg Med Chem, 2016, 24 (22), 5884-5894).
(§2) Briefly, the bacterial inoculum was adjusted to approximately 2.5-3×10^4 cells/mL in Mueller-Hinton broth (MHB, Difco Laboratories, USA), and incubated in a ratio of 1:1 with test derivatives in polystyrene 96-well flat-bottom microplates (NUNC, Roskilde, Denmark). Positive growth control (without test derivatives) and negative control (without bacteria) were included. The reference antibiotic was oxytetracycline hydrochloride (Sigma Aldrich, Saint Louis, Mo., USA). The microplates were incubated in an EnVision microplate reader (Perkin-Elmer, Turku, Finland) placed in an incubator set to 35° C. for 48 h. The MIC value was defined as the lowest concentration of derivative resulting in no bacterial growth as determined by OD600 measurement. All derivatives were tested in three parallels.

[3] = tested on: Escherichia coli ATCC 25922; experiment: MIC assay, antibiotic susceptible reference strain; details: ATCC25922; Escherichia coli ATCC 25922; read-out: Antimicrobial activity (MIC) E. c
Experimental: as §1, §2

[4] = tested on: Pseudomonas aeruginosa PA01, DSM 19880 (ATCC 15692); experiment: MIC assay, antibiotic susceptible reference strain; details: Pseudomonas aeruginosa PA01, DSM 19880 (ATCC 15692); read-out: Antimicrobial activity (MIC) P. a
Experimental: as §1, §2

[5] = tested on: Staphylococcus aureus ATCC 9144; experiment: MIC assay, antibiotic susceptible reference strain; details: ATCC9144; Staphylococcus aureus ATCC 9144; read-out: Antimicrobial activity (MIC) S. a
Experimental: as §1, §2

Structure (SMILES)	IC50 [1] [µg/mL]	MIC [2] [µg/mL]	MIC [3] [µg/mL]	MIC [4] [µg/mL]	MIC [5] [µg/mL]
NCCCCN1C(=O)N(CCCCN)C(=O)C(CCCc2ccccc2)(CCCc2ccccc2)C1=O [Compound 9]	2.9 (≈ 5.72 µM)				
CN(C)[C@@H]1C(O)=C(C(N)=O)C(=O)[C@@]2(O)C(O)=C3C(=O)c4c(O)cccc4[C@@](C)(O)[C@H]3[C@H](O)[C@@H]12 [Oxytetracycline, reference compound]		0.65 (≈ 1.41 µM)	2.5 (≈ 5.43 µM)	20 (≈ 43.4 µM)	0.65 (≈ 1.41 µM)
